# Test results as given in paper PMC10064822, “The importance of including the C-terminal domain of PTP1B1-400 to identify potential antidiabetic inhibitors” (Journal of Enzyme Inhibition and Medicinal Chemistry, 2023).
# Where two headings read alike, the source gives them in different places.
# Columns and labels:
# PTP1B1-321 = details: cited from earlier work
# PTP1B1-301 = details: cited from earlier work
# PTP1B1-299 = test system: PTP1B1-299; parameters: method as in PMID 15475571; details: PTP1B1-299 ref [20]; cited from earlier work
# PTP1B1-393 = details: cited from earlier work
# PTP1B1-405 = details: cited from earlier work
# hPTP1B1-400 [1] = target: T1, hPTP1B1-400 (Homo sapiens, UniProt P18031); assay: Enzyme kinetics of hPTP1B1-400 inhibition; format: biochemical; parameters: the three purified hPTP1B constructs (hPTP1B1-285, hPTP1B1-321, and hPTP1B1-400); His-tag (N); made in house; host or cells: E. coli BL21 (DE3); details: for Type of inhibition: hPTP1B1-400, pNPP 0.1-0.5 mM, best fit by R^2; for Vmax: fit of inhibition model
# T1 sequence (P18031 1-400): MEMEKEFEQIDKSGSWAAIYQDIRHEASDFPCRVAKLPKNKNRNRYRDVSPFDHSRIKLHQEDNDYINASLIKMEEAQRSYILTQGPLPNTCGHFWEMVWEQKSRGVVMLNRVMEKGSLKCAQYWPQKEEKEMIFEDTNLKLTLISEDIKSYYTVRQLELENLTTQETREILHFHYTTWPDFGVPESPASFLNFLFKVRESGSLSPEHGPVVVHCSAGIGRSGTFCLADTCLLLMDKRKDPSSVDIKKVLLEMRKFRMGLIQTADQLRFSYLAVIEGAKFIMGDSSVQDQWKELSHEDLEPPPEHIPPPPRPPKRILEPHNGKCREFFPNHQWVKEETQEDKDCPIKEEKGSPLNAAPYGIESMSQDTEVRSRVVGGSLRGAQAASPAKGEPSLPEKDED
# Description: The negative control was prepared with the enzyme and substrate in the absence of an inhibitor. The experiments were performed in triplicate. […] (2) y= Vmax x/Km + x,
# Vmax is the maximum velocity, x is the […] concentration, and Km is the Michaelis constant.
# (3) y= Vmax (x)/Km (1+(I/Ki))+x (4) y= Vmax (x)/((1+I)/(α Ki)) /x+Km ((1+I)/ Ki)/(1+I)/(α Ki)), (5) y= Vmax (x)/ x+(Km/(1+I)/Ki)
# Vmax is the maximum velocity, x is the substrate concentration, I is the inhibitor concentration, Km is the Michaelis constant, Ki is the inhibition constant, and α=Vmax without inhibitor/Vmax with inhibitor.
# hPTP1B1-285 = target: T2, hPTP1B1-285 (Homo sapiens, UniProt P18031); assay: hPTP1B inhibition assay (pNPP), construct hPTP1B1-285; details: read-out: Km of the substrate (pNPP); hPTP1B1-285, no inhibitor
# T2 sequence (P18031 1-285): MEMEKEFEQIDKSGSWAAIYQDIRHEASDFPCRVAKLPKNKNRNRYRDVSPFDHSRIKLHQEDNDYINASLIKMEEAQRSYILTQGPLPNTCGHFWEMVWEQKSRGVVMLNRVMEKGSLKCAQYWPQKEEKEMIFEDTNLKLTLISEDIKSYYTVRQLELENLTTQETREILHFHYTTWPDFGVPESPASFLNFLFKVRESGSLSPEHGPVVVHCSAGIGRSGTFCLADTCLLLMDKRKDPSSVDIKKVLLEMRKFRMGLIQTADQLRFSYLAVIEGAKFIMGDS
# hPTP1B1-321 = target: T3, hPTP1B1-321 (Homo sapiens, UniProt P18031); assay: hPTP1B inhibition assay (pNPP), construct hPTP1B1-321; details: read-out: Km of the substrate (pNPP); hPTP1B1-321, no inhibitor
# T3 sequence (P18031 1-321): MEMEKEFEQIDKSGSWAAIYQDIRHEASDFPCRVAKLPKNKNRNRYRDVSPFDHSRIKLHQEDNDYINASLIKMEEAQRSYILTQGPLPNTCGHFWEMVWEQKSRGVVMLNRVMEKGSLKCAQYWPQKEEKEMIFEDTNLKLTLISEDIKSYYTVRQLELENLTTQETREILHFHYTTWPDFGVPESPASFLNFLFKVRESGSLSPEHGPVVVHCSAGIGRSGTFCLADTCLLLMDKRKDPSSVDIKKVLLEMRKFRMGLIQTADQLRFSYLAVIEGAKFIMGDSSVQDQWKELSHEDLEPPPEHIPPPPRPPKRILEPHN
# hPTP1B1-400 [2] = target: T1, hPTP1B1-400; assay: hPTP1B inhibition assay (pNPP), construct hPTP1B1-400; details: read-out: Km of the substrate (pNPP); hPTP1B1-400, no inhibitor
# PTP1B1-400 = details: cited from earlier work
# PTP1B1-298 = details: cited from earlier work
molecule,measurement,setting,value
"O=C(/C=C/c1ccc(O)c(O)c1)O[C@@H](C(=O)O)[C@@H](OC(=O)/C=C/c1ccc(O)c(O)c1)C(=O)O [Cichoric acid (CHA), Cichoric acid]",Inhibition type,PTP1B1-321; PTP1B1-321 ref [39],Non-competitive
same,Inhibition type,PTP1B1-301; PTP1B1-301 ref [47],Competitive
same,Ki,PTP1B1-301; PTP1B1-301 ref [47],1400 µM
Cc1cc(-c2c3ccccc3c(Br)c3sc(C)c(C)c23)cc(C)c1O[C@H](Cc1ccccc1)C(=O)O [Ertiprotafib],IC50,PTP1B1-299,> 20 µM
same,Inhibition type,PTP1B1-299,Nonclassic kinetics: Aggregation
same,Inhibition type,PTP1B1-393; PTP1B1-393 ref [18],Nonclassic kinetics: Aggregation
same,Inhibition type,PTP1B1-301; PTP1B1-301 ref [18],Nonclassic kinetics: Aggregation
COC(=O)CC[C@@H](C)[C@H]1CC[C@H]2[C@@H]3[C@H](O)C[C@H]4C[C@H](NCCCCNCc5ccccn5)CC[C@]4(C)[C@H]3CC[C@]12C [DPM-1001],IC50,PTP1B1-405; PTP1B1-405 ref [48],0.1 µM
same,Inhibition type,PTP1B1-405; PTP1B1-405 ref [48],Non-competitive
same,Kd,PTP1B1-405; PTP1B1-405 ref [48],0.075 µM
"O=C(/C=C/c1ccc(O)c(O)c1)O[C@@H]1C[C@](O)(C(=O)O)C[C@@H](O)[C@H]1O [CGA, chlorogenic acid]",IC50,PTP1B1-321; PTP1B1-321 ref [39],9.82 µM
same,Inhibition type,PTP1B1-321; PTP1B1-321 ref [39],Non-competitive
same,Inhibition type,PTP1B1-301; PTP1B1-301 ref [47],Non-competitive
same,Ki,PTP1B1-301; PTP1B1-301 ref [47],8200 µM
"[Na+].[Na+].[Na+].[O]=[V]([O-])([O-])[O-] [SO, sodium orthovanadate]",IC50,PTP1B1-321; PTP1B1-321 ref [39–42],1.38 µM
same,Inhibition type,PTP1B1-321; PTP1B1-321 ref [39–42],Competitive
same,Ki,PTP1B1-321; PTP1B1-321 ref [39–42],0.38 µM
same,Type of inhibition,hPTP1B1-400 [1],Uncompetitive
same,Vmax,"hPTP1B1-400 [1]; hPTP1B1-400, pNPP substrate",3.20 ± 0.80
"O=[N+]([O-])c1ccc(OP(=O)(O)O)cc1 [pNPP, p-nitrophenyl phosphate]",Km,hPTP1B1-285,16.4 ± 1.55 mM
same,Km,hPTP1B1-321,15.7 ± 1.68 mM
same,Km,hPTP1B1-400 [2],2.03 ± 0.11 mM
"O=C(O)C(=O)Nc1ccccc1C(=O)O [2-(Oxaloamino) benzoic acid (OBA), 2-(oxaloamino) benzoic acid]",Inhibition type,PTP1B1-321; PTP1B1-321 ref [37],Competitive
same,Ki,PTP1B1-321; PTP1B1-321 ref [37],200 µM
CC(C)[C@@H](CC[C@@H](C)[C@H]1CC[C@H]2[C@@H]3[C@H](O)C[C@H]4C[C@@H](NCCCNCCCCNCCCN)CC[C@]4(C)[C@H]3CC[C@]12C)OS(=O)(=O)O [Trodusquemine],Inhibition type,PTP1B1-405; PTP1B1-405 ref [7],Non-competitive
same,IC50,PTP1B1-400; PTP1B1-400 ref [43],1 µM
same,Inhibition type,PTP1B1-400; PTP1B1-400 ref [43],Non-competitive
same,Inhibition type,PTP1B1-321; PTP1B1-321 ref [7],Non-competitive
"C[C@H]1[C@H](C)CC[C@]2(C(=O)O)CC[C@]3(C)C(=CC[C@@H]4[C@@]5(C)CC[C@H](O)C(C)(C)[C@@H]5CC[C@]43C)[C@H]12 [UA, ursolic acid]",IC50,PTP1B1-298; PTP1B1-298 ref [44],7.1 µM
same,Inhibition type,PTP1B1-298; PTP1B1-298 ref [44],Non-competitive
same,Ki,PTP1B1-298; PTP1B1-298 ref [44],25.8 µM
same,IC50,PTP1B1-400; PTP1B1-400 ref [28],5.6 µM
same,Inhibition type,PTP1B1-400; PTP1B1-400 ref [28],Non-competitive
same,Ki,PTP1B1-400; PTP1B1-400 ref [28],8.9 µM
same,IC50,PTP1B1-321; PTP1B1-321 ref [45],6.6 µM
same,Inhibition type,PTP1B1-321; PTP1B1-321 ref [45],Competitive
same,IC50,PTP1B1-321; PTP1B1-321 ref [46],3.08 µM
same,Inhibition type,PTP1B1-321; PTP1B1-321 ref [46],Competitive
same,Type of inhibition,hPTP1B1-400 [1],Mixed
same,Vmax,"hPTP1B1-400 [1]; hPTP1B1-400, pNPP substrate",0.63 ± 0.08
"Oc1cc(Cc2cc(O)c(O)c(Br)c2Cc2cc(O)c(O)c(Br)c2Br)c(Br)c(Br)c1O [BDB, 3-bromo-4,5-bis(2,3-dibromo-4,5-dihydroxybenzyl)-1,2-benzenediol]",IC50,PTP1B1-321; PTP1B1-321 ref [21],1.86 µM
same,Inhibition type,PTP1B1-321; PTP1B1-321 ref [21],Competitive
2-(hydroxy-phenoxy) acetic acid,Inhibition type,PTP1B1-321; PTP1B1-321 ref [38],Competitive
same,Ki,PTP1B1-321; PTP1B1-321 ref [38],9 µM
"CC1CCC2(C(=O)O)CCC3(C)C(=CCC4C5(C)C(O)C(=O)C(O)C(C)(C)C5CCC43C)C2C1(C)O (stereo not drawn) [1β,3α,19α-trihydroxy-2-oxours-12-en-28-oic acid]",IC50,PTP1B1-321; PTP1B1-321 ref [49],13.2 µM
same,Inhibition type,PTP1B1-321; PTP1B1-321 ref [49],Non-competitive
same,Ki,PTP1B1-321; PTP1B1-321 ref [49],10.8 µM
"Cc1ccc(C(=O)Nc2ccc(S(=O)(=O)O)c3cc(S(=O)(=O)O)cc(S(=O)(=O)O)c23)cc1NC(=O)c1cccc(NC(=O)Nc2cccc(C(=O)Nc3cc(C(=O)Nc4ccc(S(=O)(=O)O)c5cc(S(=O)(=O)O)cc(S(=O)(=O)O)c45)ccc3C)c2)c1 [SUR, suramin]",IC50,PTP1B1-400; PTP1B1-400 ref [28],4.1 µM
same,Inhibition type,PTP1B1-400; PTP1B1-400 ref [28],Competitive
same,Ki,PTP1B1-400; PTP1B1-400 ref [28],7.1 µM
same,IC50,"PTP1B1-321; PTP1B1-321 ref [40], [50]",11 µM
same,Inhibition type,"PTP1B1-321; PTP1B1-321 ref [40], [50]",Competitive
same,Ki,"PTP1B1-321; PTP1B1-321 ref [40], [50]",4 µM
same,Type of inhibition,hPTP1B1-400 [1],Competitive
same,Vmax,"hPTP1B1-400 [1]; hPTP1B1-400, pNPP substrate",0.64 ± 0.02
COc1ccc(-n2ncc3c2C(C)(C)[C@@H]2CC[C@]4(C)[C@H](C(=O)C=C5[C@@H]6C[C@@](C)(C(=O)O)CC[C@]6(C)CC[C@]54C)[C@@]2(C)C3)cc1 [5 b],Type of inhibition,hPTP1B1-400 [1],Uncompetitive
same,Ki,"hPTP1B1-400 [1]; hPTP1B1-400, pNPP substrate",3.42 ± 0.2 µM
same,Vmax,"hPTP1B1-400 [1]; hPTP1B1-400, pNPP substrate",0.87 ± 0.03
CC1=C(O)C(=O)C=C2C1=CC=C1[C@@]2(C)CC[C@@]2(C)[C@@H]3C[C@](C)(C(=O)O)CC[C@]3(C)CC[C@]12C [Celastrol],IC50,PTP1B1-298; PTP1B1-298 ref [36],4.8 µM
same,Inhibition type,PTP1B1-298; PTP1B1-298 ref [36],Non-competitive
same,Kd,PTP1B1-298; PTP1B1-298 ref [36],6.1 µM
same,IC50,PTP1B1-393; PTP1B1-393 ref [36],2.1 µM
same,Inhibition type,PTP1B1-393; PTP1B1-393 ref [36],Non-competitive
C[C@@H]1CC[C@]2(C(=O)O)CC[C@]3(C)C(=CC[C@@H]4[C@@]5(C)C[C@H](O)[C@H](O)C(C)(C)[C@@H]5CC[C@]43C)[C@@H]2[C@]1(C)O [2β-hydroxy pomolic acid],IC50,PTP1B1-321; PTP1B1-321 ref [49],5.88 µM
same,Inhibition type,PTP1B1-321; PTP1B1-321 ref [49],Mixed-competitive
same,Ki,PTP1B1-321; PTP1B1-321 ref [49],7.56 µM
